Experimental data as given in PubChem BioAssay (NCI).
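48-hour exposure; five concentrations; linearly interpolated endpoints. The concentration for full growth arrest is given as TGI.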 Where a SMILES comes first, the peptide text is derived from it. [ ]: non-standard residue; d: D form. The star is where a group is joined. ξ: configuration not given here. NMeF = CN[C@@H](Cc1ccccc1)C(=O)O; ξNMeV = CNC(C(=O)O)C(C)C; Boc = CC(C)(C)OC(=O)*; OBn = c1ccc(CO*)cc1

Tests used:
Assay in all cases: inhibition of tumour cell growth, NCI panel, 48 h
SK-MEL-5 melanoma = system: SK-MEL-5 melanoma
A549 NSCLC = system: A549 NSCLC
MALME-3M melanoma = system: MALME-3M melanoma
SNB-75 CNS = system: SNB-75 CNS
UACC-257 melanoma = system: UACC-257 melanoma
CAKI-1 renal = system: CAKI-1 renal
KM12 colon = system: KM12 colon
NCI-H460 lung = system: NCI-H460 lung
SK-MEL-28 melanoma = system: SK-MEL-28 melanoma
OVCAR-5 ovarian = system: OVCAR-5 ovarian
HCT-116 colon = system: HCT-116 colon
DU-145 prostate = system: DU-145 prostate
MDA-MB-435 = system: MDA-MB-435

SMILES: COc1ccc(C2ON(c3ccccn3)CC=C2C)cc1 (centres undefined)
- TGI (SK-MEL-5 melanoma): > 100 µM
- TGI (A549 NSCLC): > 100 µM
- TGI (MALME-3M melanoma): > 100 µM
- TGI (SNB-75 CNS): > 100 µM
- TGI (UACC-257 melanoma): > 100 µM
- TGI (CAKI-1 renal): > 100 µM
- TGI (KM12 colon): > 100 µM
- TGI (NCI-H460 lung): > 100 µM
- TGI (SK-MEL-28 melanoma): > 100 µM
- TGI (OVCAR-5 ovarian): > 100 µM

SMILES: CC12CC[C@H](O)C(C)(C)[C@H]1CC[C@](C)(O)C2COc1ccc2ccc(=O)oc2c1 (some centres undefined)
- TGI (A549 NSCLC): > 100 µM
- TGI (MALME-3M melanoma): > 100 µM
- TGI (SNB-75 CNS): > 100 µM
- TGI (UACC-257 melanoma): > 100 µM
- TGI (KM12 colon): > 100 µM
- TGI (HCT-116 colon): > 100 µM
- TGI (NCI-H460 lung): > 100 µM
- TGI (SK-MEL-28 melanoma): > 100 µM

SMILES: COC(=O)N/N=C/c1oc(-c2ccccc2)c(-c2ccccc2)c1[N+](=O)[O-]
- TGI (SK-MEL-5 melanoma): > 100 µM
- TGI (A549 NSCLC): > 100 µM
- TGI (MALME-3M melanoma): > 100 µM
- TGI (SNB-75 CNS): > 100 µM
- TGI (UACC-257 melanoma): > 100 µM
- TGI (CAKI-1 renal): > 100 µM
- TGI (KM12 colon): > 100 µM
- TGI (HCT-116 colon): > 100 µM
- TGI (NCI-H460 lung): > 100 µM
- TGI (SK-MEL-28 melanoma): > 100 µM
- TGI (OVCAR-5 ovarian): > 100 µM

SMILES: CC(=O)OC1CC2(c3ccccc3)C(=O)c3ccccc3N2O1 (centres undefined)
- TGI (SK-MEL-5 melanoma): > 100 µM
- TGI (A549 NSCLC): > 100 µM
- TGI (MALME-3M melanoma): > 100 µM
- TGI (SNB-75 CNS): > 100 µM
- TGI (UACC-257 melanoma): > 100 µM
- TGI (HCT-116 colon): > 100 µM
- TGI (SK-MEL-28 melanoma): > 100 µM

SMILES: O=C1c2nn(-c3ccccc3)nc2C(c2ccccc2)N1c1ccccc1 (centres undefined)
- TGI (SK-MEL-5 melanoma): > 100 µM
- TGI (A549 NSCLC): > 100 µM
- TGI (MALME-3M melanoma): > 100 µM
- TGI (SNB-75 CNS): 81.2 µM
- TGI (UACC-257 melanoma): > 100 µM
- TGI (CAKI-1 renal): > 100 µM
- TGI (KM12 colon): > 100 µM
- TGI (HCT-116 colon): > 100 µM
- TGI (NCI-H460 lung): > 100 µM
- TGI (SK-MEL-28 melanoma): > 100 µM
- TGI (OVCAR-5 ovarian): > 100 µM

SMILES: O=C(/C=C(\Nc1ccccc1O)c1ccccc1)C(=O)NC12CC3CC(CC(C3)C1)C2
- TGI (SK-MEL-5 melanoma): > 10 µM
- TGI (MALME-3M melanoma): > 10 µM
- TGI (DU-145 prostate): > 10 µM
- TGI (MDA-MB-435): > 10 µM
- TGI (SNB-75 CNS): > 10 µM
- TGI (UACC-257 melanoma): > 10 µM
- TGI (CAKI-1 renal): > 10 µM
- TGI (KM12 colon): > 10 µM
- TGI (NCI-H460 lung): > 10 µM
- TGI (SK-MEL-28 melanoma): > 10 µM
- TGI (OVCAR-5 ovarian): > 10 µM

SMILES: CC(C)C(C(=O)N1CCC[C@@H]1C(=O)OCc1ccccc1)N(C)C(=O)C(C(C)C)N(C)C(=O)[C@H](Cc1ccccc1)N(C)C(=O)[C@H](NC(=O)OC(C)(C)C)C(C)C (some centres undefined) (Boc-[dV][NMeF][ξNMeV][ξNMeV][dP]-OBn)
- TGI (SK-MEL-5 melanoma): > 100 µM
- TGI (A549 NSCLC): > 100 µM
- TGI (MALME-3M melanoma): > 100 µM
- TGI (SNB-75 CNS): > 100 µM
- TGI (UACC-257 melanoma): > 100 µM
- TGI (KM12 colon): > 100 µM
- TGI (HCT-116 colon): > 100 µM
- TGI (NCI-H460 lung): > 100 µM
- TGI (SK-MEL-28 melanoma): > 100 µM
- TGI (OVCAR-5 ovarian): > 100 µM

SMILES: O=C1C2CCC(C2)C12CC1(c3ccccc3)C(=O)c3ccccc3N1O2 (centres undefined)
- TGI (SK-MEL-5 melanoma): > 100 µM
- TGI (A549 NSCLC): > 100 µM
- TGI (MALME-3M melanoma): > 100 µM
- TGI (SNB-75 CNS): > 100 µM
- TGI (UACC-257 melanoma): > 100 µM
- TGI (HCT-116 colon): > 100 µM
- TGI (SK-MEL-28 melanoma): > 100 µM

SMILES: C[C@@H](NC(=O)OC1C=CC2(CC1)C(=O)N(C)c1ccccc12)c1cccc2ccccc12 (some centres undefined)
- TGI (SK-MEL-5 melanoma): > 25 µM
- TGI (A549 NSCLC): > 25 µM
- TGI (DU-145 prostate): > 25 µM
- TGI (MDA-MB-435): > 25 µM
- TGI (SNB-75 CNS): > 25 µM
- TGI (UACC-257 melanoma): > 25 µM
- TGI (CAKI-1 renal): > 25 µM
- TGI (KM12 colon): > 25 µM
- TGI (HCT-116 colon): > 25 µM
- TGI (NCI-H460 lung): > 25 µM
- TGI (SK-MEL-28 melanoma): > 25 µM
- TGI (OVCAR-5 ovarian): > 25 µM

SMILES: COc1cc(C(C)c2cc3c(cc2OCCCCOc2cc4c(cc2C(C)c2cc(OC)c(OC)c(OC)c2)OCO4)OCO3)cc(OC)c1OC (centres undefined)
- TGI (SK-MEL-5 melanoma): > 100 µM
- TGI (A549 NSCLC): > 100 µM
- TGI (MALME-3M melanoma): > 100 µM
- TGI (SNB-75 CNS): 69.7 µM
- TGI (UACC-257 melanoma): > 100 µM
- TGI (CAKI-1 renal): > 100 µM
- TGI (KM12 colon): > 100 µM
- TGI (HCT-116 colon): > 100 µM
- TGI (NCI-H460 lung): > 100 µM
- TGI (SK-MEL-28 melanoma): > 100 µM
- TGI (OVCAR-5 ovarian): > 100 µM

SMILES: COc1ccc([N-]/C(=N\n2c(=O)c(C)nn(C)c2=S)N(c2ccc(OC)cc2)c2nn3c(=O)c(C)n[n+](C)c3s2)cc1
- TGI (SK-MEL-5 melanoma): > 100 µM
- TGI (A549 NSCLC): > 100 µM
- TGI (SNB-75 CNS): > 100 µM
- TGI (UACC-257 melanoma): > 100 µM
- TGI (KM12 colon): > 100 µM
- TGI (HCT-116 colon): > 100 µM
- TGI (NCI-H460 lung): > 100 µM
- TGI (SK-MEL-28 melanoma): > 100 µM
- TGI (OVCAR-5 ovarian): > 100 µM

SMILES: COC(=O)C(Cc1ccccc1I)C1=CCC2(CC1)OCCO2 (centres undefined)
- TGI (SK-MEL-5 melanoma): 34.1 µM
- TGI (A549 NSCLC): 82.8 µM
- TGI (MALME-3M melanoma): 56.5 µM
- TGI (DU-145 prostate): > 100 µM
- TGI (MDA-MB-435): 44.8 µM
- TGI (SNB-75 CNS): 57.4 µM
- TGI (UACC-257 melanoma): 97.1 µM
- TGI (CAKI-1 renal): > 100 µM
- TGI (KM12 colon): 76.2 µM
- TGI (NCI-H460 lung): > 100 µM
- TGI (SK-MEL-28 melanoma): > 100 µM
- TGI (OVCAR-5 ovarian): 54.5 µM

SMILES: CC(C)OP(=O)(OC(C)C)/C(=N/N)NNc1ccc([N+](=O)[O-])cc1
- TGI (SK-MEL-5 melanoma): > 100 µM
- TGI (A549 NSCLC): > 100 µM
- TGI (MALME-3M melanoma): > 100 µM
- TGI (SNB-75 CNS): > 100 µM
- TGI (UACC-257 melanoma): > 100 µM
- TGI (CAKI-1 renal): > 100 µM
- TGI (KM12 colon): > 100 µM
- TGI (HCT-116 colon): > 100 µM
- TGI (NCI-H460 lung): > 100 µM
- TGI (SK-MEL-28 melanoma): > 100 µM
- TGI (OVCAR-5 ovarian): > 100 µM

SMILES: O=c1c2ccccc2nc(-c2ccccc2)n1NC(=S)Nc1ccc(Cl)cc1[N+](=O)[O-]
- TGI (SK-MEL-5 melanoma): > 100 µM
- TGI (A549 NSCLC): > 100 µM
- TGI (MALME-3M melanoma): > 100 µM
- TGI (SNB-75 CNS): > 100 µM
- TGI (UACC-257 melanoma): > 100 µM
- TGI (CAKI-1 renal): > 100 µM
- TGI (KM12 colon): > 100 µM
- TGI (HCT-116 colon): > 100 µM
- TGI (NCI-H460 lung): > 100 µM
- TGI (SK-MEL-28 melanoma): 82.4 µM
- TGI (OVCAR-5 ovarian): > 100 µM

SMILES: COC(=O)C1C2C=CC(C2)N1S(=O)(=O)c1ccccc1 (centres undefined)
- TGI (SK-MEL-5 melanoma): > 100 µM
- TGI (A549 NSCLC): > 100 µM
- TGI (MALME-3M melanoma): > 100 µM
- TGI (DU-145 prostate): > 100 µM
- TGI (MDA-MB-435): > 100 µM
- TGI (CAKI-1 renal): > 100 µM
- TGI (KM12 colon): > 100 µM
- TGI (HCT-116 colon): > 100 µM
- TGI (NCI-H460 lung): > 100 µM
- TGI (SK-MEL-28 melanoma): > 100 µM
- TGI (OVCAR-5 ovarian): > 100 µM

SMILES: O=c1cc(CC(O)(C(F)(F)Cl)C(F)(F)Cl)[nH]n1-c1ccccc1
- TGI (SK-MEL-5 melanoma): > 100 µM
- TGI (A549 NSCLC): > 100 µM
- TGI (MALME-3M melanoma): > 100 µM
- TGI (DU-145 prostate): > 100 µM
- TGI (MDA-MB-435): > 100 µM
- TGI (SNB-75 CNS): > 100 µM
- TGI (UACC-257 melanoma): > 100 µM
- TGI (KM12 colon): > 100 µM
- TGI (HCT-116 colon): > 100 µM
- TGI (NCI-H460 lung): > 100 µM
- TGI (SK-MEL-28 melanoma): > 100 µM
- TGI (OVCAR-5 ovarian): > 100 µM
